Source: the METLIN SMRT retention time set (Domingo-Almenara et al. 2019)

Assay: gradient 5% acetonitrile 3 min, to 50% in 2 min, to 85% in 15 min, held 3 min, 100 µL/min
Settings: column: Zorbax Extend-C18 2.1 x 50 mm; eluents: water / acetonitrile, 0.1% formic acid
Procedure, shortened: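 Each retention time is based on an adduct peak selected computationally and verified by manual inspection. Measurements used HPLC–quadrupole time-of-flight mass spectrometry in positive and negative ionization mode on mixtures of ~100 pure standards. Chromatography ran on a Zorbax Extend-C18 column (2.1 × 50 mm, 1.8 μm) at 100 μL/min with water and acetonitrile, each containing 0.1% formic acid, and dead and dwell volumes of 40 μL and 900 μL.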

| Structure (SMILES) | RP-LC retention time [s] |
| --- | --- |
| COc1ccc(C)cc1Nc1nc(N)nc(CN2CCN(c3ccccn3)CC2)n1 | 606 |
| COc1ccc(CNC(=O)CN2CCN(Cc3ccccc3)C(=O)C2=O)cc1 | 684 |
| CC(=O)N1CCc2cc(N3CC(C(=O)NCc4ccc(C)c(C)c4)CC3=O)ccc21 (configuration not stated) | 750 |
| CCCNC(=O)c1ccc2nc(CCc3ccc(NC(=O)C(C)C)cc3)[nH]c2c1 | 617 |
| Cc1cc(N2CCN(S(=O)(=O)c3ccc(F)c(F)c3)CC2)nc(N2CCCCC2)n1 | 775 |
| CCn1c(C)c(CN2CCC(C(=O)NCc3cccc(Cl)c3)CC2)c2ccccc21 | 772 |
| CCOc1ccc2nc(C(=O)NCc3cccc(Br)c3)cn2n1 | 944 |
| CCc1ccc(CNC(=O)C2CCCN(c3nc4c(s3)c(C)nn4-c3ccc(Cl)cc3)C2)cc1 (configuration not stated) | 1380 |
| CCn1ccc(C(=O)N2CCC(c3noc(-c4ccncc4)n3)C2)n1 (configuration not stated) | 665 |
| O=C(NCCc1ccc(Cl)cc1)c1nc(Cn2c(=O)oc3ccccc32)no1 | 969 |
| c1csc(-c2nc(-c3ccc4c(c3)ncn4CCN3CCCC3)no2)c1 | 614 |
| O=C(NC1CC1)c1cn(-c2ncccc2-c2nc(-c3ccccc3)no2)cn1 | 762 |
| Cc1nc(C)c(-c2ccc(=O)n(CCNS(=O)(=O)c3ccc4c(c3)OCCO4)n2)s1 | 642 |
| CSc1ccc(CN2CC(c3nc(C)no3)C2)cc1 | 530 |
| O=C(Cc1ccc(Cl)cc1)N1CCN(c2ccc(Nc3ccccn3)nn2)CC1 | 603 |
| CCn1ccnc1CC1COc2ccccc2O1 (configuration not stated) | 682 |
| Cc1ccc(NS(=O)(=O)c2cc3c(s2)CCN(C(=O)C2CC2)C3)c(F)c1 | 828 |
| COc1ccccc1-c1nnc(-c2ccc(-n3ccnc3)nc2)o1 | 614 |
| Cn1c(=O)c(SCC(=O)NCc2cccc(Br)c2)nc2cccnc21 | 806 |
| COc1ccc(Cl)cc1NS(=O)(=O)c1cc2n(c1)CCCN(C)C2=O | 724 |
| COc1ccc(-c2nc(Cn3ccnc3C)no2)cc1 | 607 |
| Cc1nc(N2CCN(Cc3ccc4c(c3)OCO4)CC2)nc2c1C(=O)CC(c1cccs1)C2 (configuration not stated) | 753 |

| Structure (SMILES) | RP-LC retention time [s] |
| --- | --- |
| CC(=O)c1ccc(NC(=O)Cn2c(N3CCc4ccccc4C3)nc(C)cc2=O)cc1 | 727 |
| CC(C)CC(=O)Nc1ccc(-n2cnc(C(=O)N3CCC4(CC3)OCCO4)c2)nc1 | 677 |
| CCOc1ccc(CC(=O)N2CC(=O)Nc3ccccc32)cc1 | 706 |
| CN(C)CCNC(=O)CN1C(=O)C2CCCCN2c2ccc(C(=O)N3CCCCC3)cc21 (configuration not stated) | 619 |
| O=C(CN1CCc2ccccc2C1C(=O)N1CCCCC1)NCc1ccccn1 (configuration not stated) | 755 |
| Cc1ccc(CNC(=O)C2CCN(S(=O)(=O)c3ccc4c(c3)NC(=O)C(C)O4)CC2)cc1 (configuration not stated) | 824 |
| Cc1nc(-c2noc(-c3ccccc3)n2)cn1CC(=O)NCc1ccc(F)cc1F | 838 |
| Cc1ccccc1CNC(=O)C1(C)CCCN(C(=O)Nc2ccc(Br)cc2F)C1 (configuration not stated) | 869 |
| O=C(Nc1ccccc1)c1ccc2c(cnn2CC(=O)N2CCCCCC2)c1 | 800 |
| COc1cc(C2Oc3ccc(C4Oc5cc(O)cc(O)c5C(=O)C4O)cc3OC2CO)ccc1O (configuration not stated) | 685 |
| O=S(=O)(Nc1ccncc1)c1cccc(C(F)(F)F)c1 | 591 |
| COc1cc(OC)c(NC(=O)N(C)CCc2noc(-c3ccc(F)cc3)n2)cc1Cl | 943 |
| CCCS(=O)(=O)N1CCCc2ccc(NC(=O)NC3CCCCC3)cc21 | 882 |
| COc1ccc(NC(=O)N2CCC3(CC2)NC(=O)c2ccccc2O3)cc1 | 712 |
| Cc1cc(C(=O)Nc2ccc3c(c2)N(S(=O)(=O)c2ccc(F)cc2)CCC3)c(C)o1 | 1010 |
| Cc1cccc(-c2nc3ccccn3c2NC(=O)NCc2ccccc2)c1 | 656 |
| CCOc1ccc(CNC(=O)CCc2c(-c3ccc(Br)cc3)nc3ccccn23)cc1 | 717 |
| Cc1ccnc(NC(=O)Cn2ccc3ccc(-c4nnc(C)o4)cc32)c1 | 674 |
| Cc1cc(C(=O)N2CCC(N3C(=O)C4(CCCC4)C3c3scnc3C)CC2)n(C)n1 (configuration not stated) | 691 |
| CCOc1ccccc1NC(=O)Cn1c(=O)n(-c2ccccc2)c(=O)c2c1cc(C)n2C | 909 |
| Cc1noc([C@@H]2CN(Cc3ccc(OC(F)(F)F)cc3)C[C@H]2CO)n1 | 643 |
| O=C(Nc1ccc(Oc2ccc(NC(=O)Nc3ccccc3Cl)cc2)cc1)Nc1ccccc1Cl | 1250 |

| Structure (SMILES) | RP-LC retention time [s] |
| --- | --- |
| CN(C)CCCn1c(C2CC(=O)N(c3ccc(F)cc3)C2)nc2ccccc21 (configuration not stated) | 590 |
| COc1cc(NC(=O)Cc2c(C(=O)O)c(C)cn2C)cc(OC)c1 | 778 |
| COC(=O)c1ccc(NC(=O)CN2CCc3[nH]c4c(C)ccc(F)c4c(=O)c3C2)cc1 | 604 |
| COCCOCC1CCN(S(=O)(=O)c2ccc(C(F)(F)F)cc2)CC1 | 937 |
| N#Cc1cccc(NC(=O)Cc2cn3cc(F)ccc3n2)c1 | 593 |
| CC(C)n1c(N2CCN(C(=O)c3ccnn3C)CC2)cc(=O)n(C(C)C)c1=O | 725 |
| CNC(=O)c1cc(=O)n(CC(=O)Nc2ccc3c(c2)OCO3)c2ccccc12 | 658 |
| CCc1ccc(NC(=O)C2CC(=O)N(CCc3c[nH]c4ccc(F)cc34)C2)cc1 (configuration not stated) | 873 |
| O=C(NC1CC1)[C@@H]1C[C@H](Oc2ccccc2)CN1C(=O)c1ccco1 | 700 |
| O=C(NCCc1csc(C2CCN(C(=O)C3CCCO3)CC2)n1)C1CCC1 (configuration not stated) | 626 |
| CCN1c2ccccc2C(=O)NC12CCN(C(=O)c1ccc(C)cc1)CC2 | 804 |
| O=C(Nc1ccc(N2CCOCC2)cc1)C1CCc2sc(C(=O)N3CCCC3)cc2C1 (configuration not stated) | 669 |
| C=CCNC(=O)N1CCCN(C2=NS(=O)(=O)C(c3ccc(CC)cc3)=C2C)CC1 | 790 |
| Cc1cc(C)c2nc(C)cc(C(=O)N3CCN(c4ccccn4)CC3)c2c1 | 593 |
| Nc1ccccc1SC1CC(=O)N(c2ccccc2Cl)C1=O (configuration not stated) | 884 |
| COc1cc(OC)c(NC(=O)NC2CCN(c3ccc(F)cc3)C2=O)cc1Cl (configuration not stated) | 854 |
| CCN1CCN(c2cc(C)c3cc(NC(=O)C(c4ccccc4)C4CCCC4)ccc3n2)CC1 (configuration not stated) | 646 |
| CCCCN1CC(c2nc3ccccc3n2CCOc2ccccc2OC)CC1=O (configuration not stated) | 750 |
| CC(C)c1noc(-c2ccc(-n3cnc(C(=O)N4CCSCC4)c3)nc2)n1 | 863 |
| O=C(NC1CCCCC1)c1csc(N2CCN(c3ccccc3)CC2)n1 | 1160 |
| CCCn1cc(C2=CCN(S(=O)(=O)Cc3ccc(Cl)cc3)CC2)c2cccnc21 | 1100 |
| CCOc1ccc(S(=O)(=O)N2CCC(c3noc(-c4ccc(F)cc4)n3)CC2)cc1 | 1120 |

| Structure (SMILES) | RP-LC retention time [s] |
| --- | --- |
| COc1ccc(OC)c(CNC(=O)c2nnc(-c3ccc(S(=O)(=O)N(C)C)cc3)o2)c1 | 854 |
| CCNC(=O)C1CCCN(c2nc3ncn(CC(=O)NCc4ccc(F)cc4)c(=O)c3s2)C1 (configuration not stated) | 648 |
| O=c1c2cc(-c3ccc4c(c3)OCO4)nn2ccn1Cc1cccc(F)c1 | 981 |
| CCn1cnc(S(=O)(=O)N2CCC(C(=O)N3CCc4ccccc43)CC2)c1 | 754 |
| O=C(Nc1ccc(Br)cc1F)C1CCN(C(=O)c2cc(-c3cccnc3)n[nH]2)CC1 | 676 |
| O=S(=O)(c1ccc2nncn2c1)N(Cc1ccc(F)cc1)c1ccccc1 | 846 |
| CC(C)c1noc(-c2ccnc(-n3cnc(C(=O)NCC4CC4)c3)c2)n1 | 879 |
| O=C(C1CCN(c2cncnc2N2CCCC2)CC1)N1CCN(c2ccc(F)cc2)CC1 | 670 |
| O=C(Nc1ccc(N2CCN(C3CCCCC3)C2=O)nc1)c1ccccc1F | 850 |
| COc1ccc(-c2nc(NC(C)C)c3ccccc3n2)cc1 | 743 |
| COCCn1nc2n(c1=O)CCN(C(=O)C1(c3ccccc3)CCCC1)CC2 | 730 |
| O=S(=O)(Cc1ccccc1F)N1CC(c2nc(CCOCc3ccccc3)no2)C1 | 1010 |
| COc1ccc(-c2csc(NC(=O)CCn3c(=O)sc4ccccc43)n2)cc1OC | 917 |
| CCCN(C(=O)C1CCCN(c2ncnc3c2nc2n3CCCCC2)C1)c1ccc(F)cc1 (configuration not stated) | 930 |
| Cc1cc(C)c(C(=O)N2CCC(CC(=O)NC3CCCCCC3)CC2)[nH]1 | 800 |
| CCOC(=O)c1c(C)oc2nc(C)nc(NCCN3CCN(c4ccc(OC)cc4)CC3)c12 | 732 |
| O=C(CCc1csc(NS(=O)(=O)c2ccccc2)n1)Nc1nc2ccccc2s1 | 730 |
| Cc1sc(NC(=O)CCCc2nc(-c3ccccc3)no2)nc1-c1ccc(Cl)cc1 | 1190 |
| Cn1nc(C2CCN(S(=O)(=O)c3cc(F)cc(F)c3)CC2)n(C2CCCC2)c1=O | 893 |
| C=CCNC(=O)Cc1nnc2cc(-c3nc(C4CC4)no3)ccn12 | 662 |
| Cn1c(=O)n(C)c2cc(CNCCc3ccc(F)cc3)ccc21 | 609 |
